Tests used:
Format in all cases: in vivo
OMT = test: cDNA microarray of OMT expression in sugarcane plants sprayed with defense-inducing agents; conditions: treated (Cy5) v. untreated control (Cy3), normalized
Description: The 251 cDNA clones used for microarray analysis in Example 1 were further used to assess the effects of defense-inducing agents on the expression of the stem-specific genes.
Total RNA was extracted from wild type sugarcane plants (3 months-old) that were sprayed with the defense-inducing agents jasmonic acid (JA) (25µM in 0.05.percent.Tween 20), methyl-jasmonate (MeJA) (200µM in 0.1.percent.ethanol and 0.05.percent.Tween 20) or salicylic acid (SA) (5 mM in 0.05.percent.Tween 20) for two time periods, 24 and 48 hours. The microarray including 251 cDNAs was probed with fluorescently labeled cDNAs synthesized from 1µg of total amplified RNA. One cDNA probe (e.g. RNA from plant treated with a defense-inducing agent) is labeled with one dye (Cy5), and the second (e.g. RNA from untreated control plant) with another dye (Cy3)
The normalized ratio of Cy5 v.

GUS [1] = test: Histochemical transient GUS expression in particle bombarded sorghum stem tissue; conditions: versus Ubiquitin 1 promoter
From the text: (§1) FIG. 14 is a photomicrograph of particle bombarded maize and sorghum stem tissues showing histochemical localization of transient GUS expression driven by the stem-regulated OMT promoter or the constitutive maize ubiquitinl promoter.

GUS [2] = test: Histochemical transient GUS expression in particle bombarded maize stem tissue; conditions: versus Ubiquitin 1 promoter
From the text: as §1

Compound	Cy5/Cy3 Ratios (Upregulation) for OMT (OMT; 24 hours after spraying)	Cy5/Cy3 Ratios (Upregulation) for OMT (OMT; 48 hours after spraying)	Transient expression of GUS in stem tissue (GUS [1])	Transient expression of GUS in stem tissue (GUS [2])
CC/C=C\C[C@H]1C(=O)CC[C@@H]1CC(=O)O [JA, jasmonic acid]	0.99	2.00	–	–
CC/C=C\CC1C(=O)CCC1CC(=O)OC (stereo not shown) [MeJA, methyl-jasmonate]	0.70	0.97	–	–
O=C(O)c1ccccc1O [SA, salicylic acid]	–	2.00	–	–
OMT promoter: sugarcane o-methyl transferase gene promoter, SEQ ID NO:1, directing stem-regulated, defense-inducible expression	–	–	comparable to that obtained with the Ubiquitin 1 promoter	comparable to that obtained with the Ubiquitin 1 promoter
